# Data reported in publication PMC3560421 (European journal of medicinal chemistry, 2012).
# Where two headings read alike, the source gives them in different places.
# Key:
# poly(dA-dT)n = assay: DNA thermal melting; assay type: binding; conditions: thermal melting with poly(dA-dT); compared with DB766
# [1] = test system: intracellular Leishmania amazonensis; assay: Efficacy against intracellular Leishmania amazonensis parasites; assay type: cell-based; conditions: read-out: IC50 L. a., intracellular L. amazonensis
# [2] = Preliminary in vivo toxicity evaluation in uninfected animals; design: species or system mice; conditions: for Adverse reaction after dosing: mouse, in vivo, ip, 30 mg/kg
# [3] = test system: intracellular Leishmania amazonensis; conditions: read-out: IC50 L. a.; cited from earlier work
# [4] = test system: intracellular Leishmania donovani; conditions: read-out: IC50 L. d.; cited from earlier work
# Leishmania = conditions: read-out: IC50 value (antileishmanial, in vitro); cited from earlier work
Compound,DNA binding (in words) (poly(dA-dT)n),Toxicity to mice (in words) [2],Adverse reaction after dosing [2],other results
"Cl.Cl.N=C(Nc1ccc(NC(=N)c2ncccn2)cc1)c1ncccn1 [3b, N,N'-(1,4-phenylene)dipyrimidine-2-carboximidamide hydrochloride]",essentially do not bind to DNA,–,–,–
"Cl.Cl.N=C(Nc1ccc(Oc2ccc(NC(=N)c3ccccn3)cc2)cc1)c1ccccn1 [9c, N,N'-(oxybis(4,1-phenylene))dipicolinimidamide hydrochloride]",–,quite toxic to mice,severe tremors,IC50 [1]: < 1000 nM
CC(C)Oc1cc(NC(=N)c2ccccn2)ccc1-c1ccc(-c2ccc(NC(=N)c3ccccn3)cc2OC(C)C)o1 [DB766],–,–,–,IC50 [3]: 87 nM; IC50 [4]: 36 nM; IC50 (Leishmania): < 100 nM
"CC(C)Oc1cc(NC(=N)c2ccccn2)ccc1-c1ccc(NC(=N)c2ccccn2)cc1OC(C)C.Cl.Cl [compound 13, N,N'-(2,2'-di-isopropoxy-[1,1'-biphenyl]-4,4'-diyl)dipicolinimidamide hydrochloride]",essentially does not bind to DNA,quite toxic to mice,severe tremors,–
"Cl.Cl.N=C(Nc1ccc(NC(=N)c2ccccn2)cc1)c1ccccn1 [3a, N,N'-(1,4-phenylene)dipicolinimidamide hydrochloride]",essentially do not bind to DNA,–,–,–
"Cl.Cl.N=C(Nc1ccc(-c2ccc(NC(=N)c3ccccn3)cc2)cc1)c1ccccn1 [9a, N,N'-([1,1'-biphenyl]-4,4'-diyl)dipicolinimidamide hydrochloride]",binds with the same affinity as DB766,quite toxic to mice,severe tremors,IC50 [1]: < 1000 nM
"Cl.Cl.N=C(Nc1ccccn1)c1ccc(C(=N)Nc2ccccn2)cc1 [compound 6, N ^1,N ^4-di(pyridin-2-yl)terephthalimidamide hydrochloride]",essentially do not bind to DNA,–,–,–
